Measurements as given in patent publication US20230174581A1, “PROCESSES AND AGENTS FOR GLAUCOMA” (AUFBAU MEDICAL INNOVATIONS LIMITED, priority 2020, published 2023).
Where a name gives a salt, the structure may show the parent alone. Where a SMILES comes first, the peptide text is derived from it. Bridges are numbered along the chain shown (N, C = ends). [ ]: non-standard residue; d: D form. The star is where a group is joined. Octanoyl(6-Me) = CCC(C)CCCCC(=O)*; Dab = NCC[CH](N)C(=O)O

Tests used:
[1] = Dose-response of IOP reduction in bovine vitreous humor (BVH) glaucoma model, microfluidic chip device; conditions: 12.5% BVH, incubated at 37° C. for 1 hour; 7 ul injected; read-out: EC50 for treatment of glaucoma in a bovine vitreous model (IOP reduction)
Protocol: Bovine vitreous after homogenization was used to model human disease because it mimicked elevated IOP in humans. […] Once it was added to BVH, the final water concentration was 0.5%. […] Once added to BVH, the final DMSO concentration was 0.5%. […] The pellet was resuspended with PBS and concentrated by 2.5X fold. For treatment of BVH with compound, 25 ul of enriched BVH was added to 25 ul of Compound and incubated for 1 hour in a thermocycler at 37° C., then 5 ul of 5 mM CFSE was added, and the sample incubated in a thermocycler at 37° C. for 30 minutes. EC50 was estimated by plotting the logarithmic functions of the micromolar concentration of the drug in the x axis against the percent of maximal response in the y axis. The maximal response was taken as the value of the response for the highest drug concentration. The response was calculated by taking the absolute difference between the control and test value for each concentration. The compound colistin sulfate was tested in bovine vitreous humor (BVH) glaucoma model in a microfluidic chip device. A solution of 25% homogenized BVH in PBS buffer was prepared and diluted with an equal amount of a solution of the compound, so that the total BVH concentration was 12.5%. The sample was vortexed and incubated at 37° C. for 1 hour. […] The test compound-BVH solution was introduced into the reservoir of the microfluidic chip device and flow rate and pressure change were recorded. Various concentrations of the compound were tested for effects on the treatment of bovine vitreous humor. 7 ul of each test solution was injected into the microfluidic chip through a sample injector. Recording of the flow rate and pressure change was continued for 50 additional minutes after the sample injection. The relative change in chip pressure for the entire course of the experiment was obtained. […] The EC50 value was taken as the point on the x-axis at which the logarithmic function of the micromolar concentration of the compound produced half-maximal response. The logarithmic function of the micromolar concentration of the drug was plotted on the x axis against the percent of maximal response on the y axis. Maximal response was obtained by taking the value of the response for the highest drug concentration. The response was calculated by taking the absolute difference between the control and test value for each concentration.

[2] = Relative IOP versus placebo in bovine vitreous humor (BVH) glaucoma model, microfluidic chip device
Protocol: Bovine vitreous after homogenization was used to model human disease because it mimicked elevated IOP in humans.
A solution of the agent compound was prepared by weighing out the compound in a microcentrifuge tube and dissolving the solid material in lx PBS buffer at pH 7.2. For a compound that was less soluble in water, a stock solution was prepared in ethanol or DMSO, and then diluted ten-fold to achieve the final concentration with a 10% ethanol or DMSO vehicle. Heat (37° C.) and vortex mixing were applied to the solution of the compound to facilitate dissolution.
To determine the effect of the compound on intraocular pressure (IOP), the compound was tested in bovine vitreous humor (BVH) glaucoma model in the microfluidic chip device.
A solution of 25% homogenized bovine vitreous humor (BVH) was prepared by diluting 100% homogenized BVH with PBS buffer. 50 uL BVH was aliquoted into 0.5 mL PCR tubes. 50 uL of the solution of the compound was added to the BVH, bringing the BVH total concentration to 12.5%. The sample was briefly vortexed and then incubated at 37° C. overnight. For a control experiment, 50 uL of either PBS buffer or PBS with 10% ethanol or DMSO were prepared and incubated with 25% BVH in the same conditions.
The test BVH solution was introduced into the reservoir of the device. A fluidic probe was attached to the inlet of the microfluidic chip and a flow rate of 2ul/min was established with PBS as the source fluid. Once fluid began exiting from the outlet of the chip and a steady flow of 2 ul/min was achieved, the flow rate and the pressure change within the microfluidic chip were recorded. Baseline flow rate and pressure readings were recorded for 5 minutes, after which 7 ul of the test BVH solution was injected into the chip through a sample injector. Recording of the flow rate and pressure change was continued for 50 additional minutes after the sample injection. Recording was stopped after 55 minutes. The relative change in chip pressure for the entire course of the experiment was plotted on a graph.

[3] = Relative IOP in microfluidic device, human glaucoma model (POAG aqueous humor); conditions: pre-incubated at 37° C. for 24 hours, placebo buffered saline
Protocol: The agent was tested by controlling flow and measuring relative IOP using in a device of this invention. The agent was compared against placebo (buffered saline) by preparing each in aqueous humor from a patient with primary open angle glaucoma and pre-incubating at 37° C. for 24 hours. The timepoint of injection into the device is denoted by an arrow and the letter “a.” Referring to FIG. 25, the IOP for placebo (dashed line) increased greatly after injection of the placebo sample. The IOP rose to a maximum pressure of about 40 mm Hg. To the contrary, the IOP after injection of the agent colistin sulfate in human aqueous humor (solid line) was markedly lower than for placebo, up to about 40% lower, and the difference was sustained.
Example 1. Isolation of extracellular matrix bodies in a microfluidic device. […] The microfluidic channel flow rate was held constant at […] per minute, and the baseline system pressure was measured using an external pressure sensor. The human aqueous humor sample was injected at timepoint denoted by an arrow and the letter “a.” The pressure steadily rises to a maximum of about 41 mm Hg at 27 minutes. […] The protein content in the aqueous humor was labeled with a fluorescent marker, carboxyfluorescein succinimidyl ester (CFSE, marked with black arrows in FIG. 2). The circles are pillars in the restriction channel.
Example 2. […]

[4] = pre-incubated at 37° C. for 24 hours, placebo buffered saline, concentration not given

CC[C@@H](C(N)=O)N1CCCC1=O [levetiracetam]
EC50 [1]: 213 nM
IOP after injection of agent, lower than for placebo [2, 4]: up to 62%

CC(C)(C)C(=O)OCOP(=O)(COCCn1cnc2c(N)ncnc21)OCOC(=O)C(C)(C)C [adefovir dipivoxil]
IOP after injection of agent, lower than for placebo [2, 4]: up to 73%

CCC(C)CCCCC(=O)NC(CCN)C(=O)NC(C(=O)NC(CCN)C(=O)NC1CCNC(=O)C(C(C)O)NC(=O)C(CCN)NC(=O)C(CCN)NC(=O)C(CC(C)C)NC(=O)C(Cc2ccccc2)NC(=O)C(CCN)NC1=O)C(C)O (centres unmarked) [polymyxin B sulfate] ({Octanoyl(6-Me)}-[Dab]T[Dab][Dab][Dab]FL[Dab][Dab]T; lactam 4-C; configuration not given here)
EC50 [1]: 4.3 nM
IOP after injection of agent, lower than for placebo ([2]; 37° C. 24 hours, Polymyxin B sulfate 10 mg/ml): 78%

Nc1ncnc2c1ncn2CCOCP(=O)(O)O [adefovir, ((2-(6-amino-9H-purin-9-yl)ethoxy)methyl)phosphonic acid]
EC50 [1]: 169 nM

CCCCCCCCCCCCCCCC[n+]1ccccc1 [cetylpyridinium chloride, 1-hexadecylpyridin-1-ium]
IOP after injection of agent, lower than for placebo ([2]; 37° C. 24 hours, cetylpyridinium chloride 43 mg/ml): ≤ 100%

H-TPPT-NH2 [rapastinel TFA]
EC50 [1]: 18 nM
IOP after injection of agent, lower than for placebo [2, 4]: up to 82%

CN(C)CCCN1c2ccccc2Sc2ccc(C(F)(F)F)cc21 [triflupromazine]
IOP after injection of agent, lower than for placebo [2, 4]: up to 40%

CC(C)N(CCNC(=O)CN1CCCC1=O)C(C)C [pramiracetam, N-[2-[di(propan-2-yl)amino]ethyl]-2-(2-oxopyrrolidin-1-yl)acetamide]
IOP after injection of agent, lower than for placebo [2, 4]: up to 44%

COC(=O)N[C@H](C(=O)N1CCC[C@H]1C(=O)Nc1ccc([C@@H]2CC[C@@H](c3ccc(NC(=O)[C@@H]4CCCN4C(=O)[C@@H](NC(=O)OC)C(C)C)cc3)N2c2ccc(C(C)(C)C)cc2)cc1)C(C)C [ombitasvir]
IOP after injection of compound compared with placebo ([2]; 37° C. 24 hours, concentration not given): significantly higher than for placebo

NC[C@@H]1OC(O[C@H]2[C@@H](O)[C@H](O[C@@H]3[C@@H](O)[C@H](N)C[C@H](N)[C@H]3OC3O[C@H](CN)[C@@H](O)[C@H](O)[C@H]3N)O[C@@H]2CO)[C@H](N)[C@@H](O)[C@@H]1O (some centres unmarked) [neomycin]
IOP after injection of agent, lower than for placebo ([2]; 37° C. 24 hours, neomycin sulfate 35 mg/ml): 72%

heparin sodium
IOP after injection of agent, lower than for placebo ([2]; 37° C. 24 hours, heparin sodium 10 mg/ml): 32%

CCCCCCCCCCCCOS(=O)(=O)[O-].[Na+] [sodium dodecyl sulfate]
IOP after injection of compound compared with placebo ([2]; 37° C. 24 hours, sodium dodecyl sulfate 24 mg/ml): significantly higher than for placebo

CC(C)(C)NC(=O)N[C@H](C(=O)N1C[C@H]2[C@@H]([C@H]1C(=O)NC(CC1CCC1)C(=O)C(N)=O)C2(C)C)C(C)(C)C (some centres unmarked) [boceprevir]
EC50 [1]: 11300 nM
IOP after injection of agent, lower than for placebo [2, 4]: up to 67%

colistin sulfate
IOP after injection of agent, lower than for placebo [3]: up to 40%
EC50 [1]: 0.36 nM
IOP after injection of agent, lower than for placebo [2, 4]: up to 97%
